Earlier results, collected in patent US20120282187A1 (BOEHRINGER INGELHEIM INTERNATIONAL GMBH, priority 2008, published 2012).

Tests used:
[1] = tested on: patients with atrial fibrillation; details: sub-cutaneous; cited from earlier work
[2] = tested on: patients with non-valvular atrial fibrillation; details: in vivo; cited from earlier work

Compound | efficacy compared to warfarin [1] | risk of bleeding compared to warfarin [1] | hepatotoxicity [2]
CO[C@H]1O[C@H](COS(=O)(=O)O)[C@@H](O[C@@H]2O[C@@H](C(=O)O)[C@@H](O[C@H]3O[C@H](COS(=O)(=O)O)[C@@H](O[C@@H]4O[C@H](C(=O)O)[C@@H](O[C@H]5O[C@H](COS(=O)(=O)O)[C@@H](OC)[C@H](OC)[C@H]5OC)[C@H](OC)[C@H]4OC)[C@H](OS(=O)(=O)O)[C@H]3OS(=O)(=O)O)[C@H](OC)[C@H]2OC)[C@H](OS(=O)(=O)O)[C@H]1OS(=O)(=O)O [idraparinux] | more effective than warfarin | substantially higher risk of bleeding | 
CCOC(=O)CN[C@@H](C(=O)N1CC[C@H]1C(=O)NCc1ccc(/C(N)=N\O)cc1)C1CCCCC1 [ximelagatran] |  |  | hepatotoxic
